The source of these data is US10829427B2, “Naphthoquinones, pro-drugs, and methods of use thereof” (The Board of Regents of the University of Texas System, priority 2015, dated 2020).

The test relates to Mia PaCa-2 cells. Briefly: ATP assay (ATP depletion / cell viability) in Mia PaCa-2 cells. The note with it: Relative activity compare with β-lapachone in ATP depletion of Mia PaCa-2 cells. It counts as cell-based, human. The protocol: In vitro anti-cancer activity of the compound were performed using ATP Assay Kit (Abcam, ab83355) to initially screen, and further performed using 7-day DNA assay.
Cell culture: endogenous NQO1 overexpressing human MIA PaCa-2 pancreactic and A549 NSCLC cancer cells were obtained (Bey, et al., 2007; Li, et al., 2011). Cancer cells were grown in DMEM with 5% FBS and Mycoplasma free, and cultured at 37° C. in a 5% CO2 95% air humidified atmosphere.
ATP assay: Cells were seeded into each well of a 96-well plate (15000 cells/well) 18 hours ahead of experiment. After aspiration of the media from each well, 100 μl drug-contained media was added instead, and further incubated for 2 hours. After incubation, 100 μl ATP assay kit mixture was added into every well. Following further shaking for 10 minutes with light proof, the data were collected by reading luminescence integrate 1 second per well.
Take `CC(C)OC1=CC(=O)C(=O)c2cccc([N+](=O)[O-])c21` [Compound 7, 4-isopropoxy-5-nitronaphthalene-1,2-dione]: the “IC50/IC50 (β-lapachone/Compoud)” value is on record as 0.3~1.

As for `CC(C)OC1=C(Cl)C(=O)C(=O)c2ccccc21` [Compound 13, 3-chloro-4-isopropoxynaphthalene-1,2-dione], the “IC50/IC50 (β-lapachone/Compoud)” value is under 0.3.

Consider `O=C1C=C(OC2CCCCC2)c2cccc(O)c2C1=O` [Compound 39, 4-(cyclohexyloxy)-8-hydroxynaphthalene-1,2-dione], for which the “IC50/IC50 (β-lapachone/Compoud)” value is 0.3~1.

`CC(C)OC1=CC(=O)C(=O)c2c(N)cccc21` [Compound 29, 8-amino-4-isopropoxynaphthalene-1,2-dione]: the “IC50/IC50 (β-lapachone/Compoud)” value is recorded as under 0.3.

As to `CC(C)OC1=CC(=O)C(=O)c2cccc(Br)c21` [Compound 32, 5-bromo-4-isopropoxynaphthalene-1,2-dione], the “IC50/IC50 (β-lapachone/Compoud)” value was under 0.3.

Regarding `CC(=O)Nc1cccc2c1C(=O)C(OCCN(C)C)=CC2=O` [Compound 45, N-(7-(2-(dimethylamino)ethoxy)-5,8-dioxo-5,8-dihydronaphthalen-1-yl)acetamide], the “IC50/IC50 (β-lapachone/Compoud)” value is 1~2.

Take `Cc1ccc(S(=O)(=O)Nc2cccc3c2C(=O)C(=O)C=C3OC(C)C)cc1` [Compound 17, N-(5-isopropoxy-7,8-dioxo-7,8-dihydronaphthalen-1-yl)-4-methylbenzenesulfonamide]: the “IC50/IC50 (β-lapachone/Compoud)” value was under 0.3.

Regarding `CCC(CC)OC1=CC(=O)C(=O)c2c(NC(C)=O)cccc21` [Compound 52, N-(7,8-dioxo-5-(pentan-3-yloxy)-7,8-dihydronaphthalen-1-yl)acetamide], the “IC50/IC50 (β-lapachone/Compoud)” value is under 0.3.

On to `CC(C)OC1=CC(=O)C(=O)c2cccc(O)c21` [Compound 40, 5-hydroxy-4-isopropoxynaphthalene-1,2-dione], for which the “IC50/IC50 (β-lapachone/Compoud)” value is given as under 0.3.

Take `O=C1C=C(OC2CCCCC2)c2ccc(Br)cc2C1=O` [Compound 2, 7-bromo-4-(cyclohexyloxy)naphthalene-1,2-dione]: the “IC50/IC50 (β-lapachone/Compoud)” value was under 0.3.

Take `CC(C)OC1=CC(=O)C(=O)c2ccc(NC(=O)OC(C)(C)C)cc21` [Compound 33, tert-butyl (8-isopropoxy-5,6-dioxo-5,6-dihydronaphthalen-2-yl)carbamate]: the “IC50/IC50 (β-lapachone/Compoud)” value is given as under 0.3.

Turning to `Cc1cc(C)c2c(c1)C(=O)C(=O)C=C2OC(C)C` [Compound 10, 4-isopropoxy-5,7-dimethylnaphthalene-1,2-dione], the “IC50/IC50 (β-lapachone/Compoud)” value was under 0.3.

As for `CC(C)OC1=C(Br)C(=O)c2ccccc2C1=O` [Compound 12, 2-bromo-3-isopropoxynaphthalene-1,4-dione], the “IC50/IC50 (β-lapachone/Compoud)” value is recorded as under 0.3.

On to `CC(=O)Nc1cccc2c1C(=O)C(OCCN1CCOCC1)=CC2=O` [Compound 44, N-(7-(2-morpholinoethoxy)-5,8-dioxo-5,8-dihydronaphthalen-1-yl)acetamide], for which the “IC50/IC50 (β-lapachone/Compoud)” value is given as 0.3~1.

Turning to `CC(C)OC1=CC(=O)C(=O)c2ccc(Br)cc21` [Compound 36, 6-bromo-4-isopropoxynaphthalene-1,2-dione], the “IC50/IC50 (β-lapachone/Compoud)” value is under 0.3.

For the compound `CC(C)OC1=CC(=O)C(=O)c2cc(Br)ccc21` [Compound 1, 7-bromo-4-isopropoxynaphthalene-1,2-dione], the “IC50/IC50 (β-lapachone/Compoud)” value was under 0.3.

On to `CCCCCCOC1=CC(=O)C(=O)c2c(NS(C)(=O)=O)cccc21` [Compound 54, N-(5-(hexyloxy)-7,8-dioxo-7,8-dihydronaphthalen-1-yl)methanesulfonamide], for which the “IC50/IC50 (β-lapachone/Compoud)” value is under 0.3.

Consider `CC(C)OC1=CC(=O)C(=O)c2c(NS(=O)(=O)C(F)(F)F)cccc21` [Compound 23, 1,1,1-trifluoro-N-(5-isopropoxy-7,8-dioxo-7,8-dihydronaphthalen-1-yl)methanesulfonamide], for which the “IC50/IC50 (β-lapachone/Compoud)” value is given as under 0.3.

As to `CC(C)OC1=CC(=O)C(=O)c2cc3c(cc21)OCO3` [Compound 9, 8-isopropoxynaphtho[2,3-d][1,3]dioxole-5,6-dione], the “IC50/IC50 (β-lapachone/Compoud)” value is given as under 0.3.

With `O=C1C=C(OC2CCCCC2)c2ccc(Cl)cc2C1=O` [Compound 5, 7-chloro-4-(cyclohexyloxy)naphthalene-1,2-dione], the “IC50/IC50 (β-lapachone/Compoud)” value is under 0.3.

Regarding `CS(=O)(=O)Nc1cccc2c1C(=O)C(=O)C=C2OC1CCCCC1` [Compound 26, N-(5-(cyclohexyloxy)-7,8-dioxo-7,8-dihydronaphthalen-1-yl)methanesulfonamide], the “IC50/IC50 (β-lapachone/Compoud)” value is reported as under 0.3.

On to `CC(C)OC1=CC(=O)C(=O)c2cccc(Cl)c21` [Compound 6, 5-chloro-4-isopropoxynaphthalene-1,2-dione], for which the “IC50/IC50 (β-lapachone/Compoud)” value is under 0.3.

Consider `COCCOCCOCCOCCOC1=CC(=O)C(=O)c2c(NS(C)(=O)=O)cccc21` [Compound 56, N-(5-(2,5,8,11-tetraoxatridecan-13-yloxy)-7,8-dioxo-7,8-dihydronaphthalen-1-yl)methanesulfonamide], for which the “IC50/IC50 (β-lapachone/Compoud)” value was under 0.3.

Regarding `COC1=C(C)C(=O)C(=O)c2c(NC(C)=O)cccc21` [Compound 47, N-(5-methoxy-6-methyl-7,8-dioxo-7,8-dihydronaphthalen-1-yl)acetamide], the “IC50/IC50 (β-lapachone/Compoud)” value is recorded as under 0.3.

Consider `CC(C)OC1=CC(=O)c2cccc(NC(=O)C(F)(F)F)c2C1=O` [Compound 20, 2,2,2-trifluoro-N-(7-isopropoxy-5,8-dioxo-5,8-dihydronaphthalen-1-yl)acetamide], for which the “IC50/IC50 (β-lapachone/Compoud)” value is recorded as under 0.3.

Consider `CC(=O)Nc1cccc2c1C(=O)C(=O)C=C2OC1CCCCC1` [Compound 25, N-(5-(cyclohexyloxy)-7,8-dioxo-7,8-dihydronaphthalen-1-yl)acetamide], for which the “IC50/IC50 (β-lapachone/Compoud)” value is recorded as under 0.3.

As for `CC(C)OC1=CC(=O)C(=O)c2c(NC(=O)C(F)(F)F)cccc21` [Compound 19, 2,2,2-trifluoro-N-(5-isopropoxy-7,8-dioxo-7,8-dihydronaphthalen-1-yl)acetamide], the “IC50/IC50 (β-lapachone/Compoud)” value is listed as under 0.3.

For the compound `CCCCCCCCOC1=CC(=O)C(=O)c2c(NS(C)(=O)=O)cccc21` [Compound 55, N-(5-(octyloxy)-7,8-dioxo-7,8-dihydronaphthalen-1-yl)methanesulfonamide], the “IC50/IC50 (β-lapachone/Compoud)” value was 1~2.

As for `CC(C)OC1=CC(=O)C(=O)c2cc(F)ccc21` [Compound 3, 7-fluoro-4-isopropoxynaphthalene-1,2-dione], the “IC50/IC50 (β-lapachone/Compoud)” value is listed as under 0.3.

As for `CC(C)Nc1cccc2c1C(=O)C(OC(C)C)=CC2=O` [Compound 31, 2-isopropoxy-8-(isopropylamino)naphthalene-1,4-dione], the “IC50/IC50 (β-lapachone/Compoud)” value was under 0.3.

`COc1cc2c(cc1OC)C(OC(C)C)=CC(=O)C2=O` [Compound 8, 4-isopropoxy-6,7-dimethoxynaphthalene-1,2-dione]: the “IC50/IC50 (β-lapachone/Compoud)” value was under 0.3.

Turning to `O=C1C=C(OC2CCCCC2)c2cccc(Cl)c2C1=O` [Compound 16, 8-chloro-4-(cyclohexyloxy)naphthalene-1,2-dione], the “IC50/IC50 (β-lapachone/Compoud)” value was 0.3~1.

Consider `CC(C)OC1=CC(=O)c2cccc(NS(C)(=O)=O)c2C1=O` [Compound 22, N-(7-isopropoxy-5,8-dioxo-5,8-dihydronaphthalen-1-yl)methanesulfonamide], for which the “IC50/IC50 (β-lapachone/Compoud)” value is given as under 0.3.

In the case of `O=C1C=C(OC2CCCCC2)c2cc(Cl)ccc2C1=O` [Compound 35, 6-chloro-4-(cyclohexyloxy)naphthalene-1,2-dione], the “IC50/IC50 (β-lapachone/Compoud)” value was 0.3~1.

As for `COC1=CC(=O)C(=O)c2c(NC(C)=O)cccc21` [Compound 46, N-(5-methoxy-7,8-dioxo-7,8-dihydronaphthalen-1-yl)acetamide], the “IC50/IC50 (β-lapachone/Compoud)” value is 1~3.

In the case of `CC(=O)Nc1cccc2c1C(=O)C(=O)C=C2OCCCO` [Compound 27, N-(5-(3-hydroxypropoxy)-7,8-dioxo-7,8-dihydronaphthalen-1-yl)acetamide], the “IC50/IC50 (β-lapachone/Compoud)” value is under 0.3.

As for `CC(=O)Nc1cccc2c1C(=O)C(=O)C=C2OCCN1CCOCC1` [Compound 43, N-(5-(2-morpholinoethoxy)-7,8-dioxo-7,8-dihydronaphthalen-1-yl)acetamide], the “IC50/IC50 (β-lapachone/Compoud)” value is 0.3~1.

Take `CCCCOC1=CC(=O)C(=O)c2c(NC(C)=O)cccc21` [Compound 50, N-(5-butoxy-7,8-dioxo-7,8-dihydronaphthalen-1-yl)acetamide]: the “IC50/IC50 (β-lapachone/Compoud)” value is recorded as 1~2.

For `CCCCCCCCOC1=CC(=O)C(=O)c2c(NC(C)=O)cccc21` [Compound 51, N-(5-(octyloxy)-7,8-dioxo-7,8-dihydronaphthalen-1-yl)acetamide], the “IC50/IC50 (β-lapachone/Compoud)” value is under 0.3.

As to `CCC(CC)OC1=CC(=O)C(=O)c2c(NS(C)(=O)=O)cccc21` [Compound 53, N-(7,8-dioxo-5-(pentan-3-yloxy)-7,8-dihydronaphthalen-1-yl)methanesulfonamide], the “IC50/IC50 (β-lapachone/Compoud)” value is under 0.3.

For the compound `CC(C)OC1=CC(=O)C(=O)c2c(Cl)cccc21` [Compound 14, 8-chloro-4-isopropoxynaphthalene-1,2-dione], the “IC50/IC50 (β-lapachone/Compoud)” value was 0.3~1.

`CC(C)OC1=CC(=O)C(=O)c2cccc(OCCN3CCOCC3)c21` [Compound 42, 4-isopropoxy-5-(2-morpholinoethoxy)naphthalene-1,2-dione]: the “IC50/IC50 (β-lapachone/Compoud)” value is under 0.3.

`CC(C)OC1=C(Br)C(=O)C(=O)c2ccccc21` [Compound 11, 3-bromo-4-isopropoxynaphthalene-1,2-dione]: the “IC50/IC50 (β-lapachone/Compoud)” value is under 0.3.
